Measured values: ChEMBL document CHEMBL1201862, “PubChem BioAssay data set” (2004)
The source made the active and inactive calls.

Key:
[1] = molecular target: T1, Heat shock factor protein 1 (Mus musculus, UniProt P38532); assay: HSF1 potentiators in luciferase reporter cells, confirmation, cell-based, NIH3T3, luminescence, dose retest (AID 435004); type: functional;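 note: stress induced by proteasome inhibitor MG132 added 30 min after compound; luciferase reporter driven by HSF1 response element in NIH3T3 cells; actives raise luminescence as potentiators of the MG132 stress response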
T1 sequence (P38532 whole entry): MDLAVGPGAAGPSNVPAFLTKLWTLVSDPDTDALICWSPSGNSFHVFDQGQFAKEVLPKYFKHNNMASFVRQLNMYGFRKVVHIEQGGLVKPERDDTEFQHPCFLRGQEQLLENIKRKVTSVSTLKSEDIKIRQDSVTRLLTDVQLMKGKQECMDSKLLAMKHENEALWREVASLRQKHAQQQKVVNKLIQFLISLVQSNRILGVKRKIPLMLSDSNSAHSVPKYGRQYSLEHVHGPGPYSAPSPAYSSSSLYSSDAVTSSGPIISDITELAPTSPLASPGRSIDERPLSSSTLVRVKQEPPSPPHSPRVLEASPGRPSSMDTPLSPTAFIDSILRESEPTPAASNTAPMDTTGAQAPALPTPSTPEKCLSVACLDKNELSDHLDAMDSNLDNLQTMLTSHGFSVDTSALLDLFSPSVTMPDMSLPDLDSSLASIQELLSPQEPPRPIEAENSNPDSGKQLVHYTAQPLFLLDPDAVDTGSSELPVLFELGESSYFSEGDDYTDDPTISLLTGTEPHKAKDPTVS

[2] = molecular target: T2, Sentrin-specific protease 1 (Homo sapiens, UniProt Q9P0U3); assay: potency of human SENP1 inhibitors, dose response, biochemical, kinetic FRET (AID 651697); type: functional; details: read-out: IC50_Mean
T2 sequence (Q9P0U3 whole entry, the tested form may be a part): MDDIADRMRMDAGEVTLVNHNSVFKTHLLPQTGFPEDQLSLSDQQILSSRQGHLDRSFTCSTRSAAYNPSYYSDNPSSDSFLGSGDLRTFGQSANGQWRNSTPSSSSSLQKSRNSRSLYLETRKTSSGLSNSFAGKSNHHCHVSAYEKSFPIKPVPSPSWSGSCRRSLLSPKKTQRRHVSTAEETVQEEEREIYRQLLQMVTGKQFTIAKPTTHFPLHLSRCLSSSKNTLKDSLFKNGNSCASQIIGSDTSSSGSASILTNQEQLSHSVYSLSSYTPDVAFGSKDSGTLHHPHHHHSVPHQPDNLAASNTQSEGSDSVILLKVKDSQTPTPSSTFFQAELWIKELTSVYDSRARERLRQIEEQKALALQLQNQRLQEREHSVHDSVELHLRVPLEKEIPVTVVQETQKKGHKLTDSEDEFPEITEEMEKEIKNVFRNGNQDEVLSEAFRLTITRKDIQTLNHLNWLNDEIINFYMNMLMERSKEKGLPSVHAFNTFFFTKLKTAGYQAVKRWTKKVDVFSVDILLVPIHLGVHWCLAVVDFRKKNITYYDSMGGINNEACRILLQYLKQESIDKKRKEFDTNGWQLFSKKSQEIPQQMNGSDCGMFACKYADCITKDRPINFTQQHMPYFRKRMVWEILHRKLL

[3] = molecular target: T2, Sentrin-specific protease 1; assay: Dose response confirmation of small molecule inhibitors of the catalytic domain of the SUMO protease, SENP1 in a FRET assay.; type: functional; details: read-out: IC50_Mean
[4] = molecular target: Nuclear receptor subfamily 5 group A member 2 (Homo sapiens, UniProt O00482); type: functional, cell-based;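 note: HEK293T cells transfected with LRH-1 and a StAR promoter luciferase reporter; potency for inhibitors that lower LRH-1 driven reporter light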
Nuclear receptor subfamily 5 group A member 2, sequence (O00482 whole entry): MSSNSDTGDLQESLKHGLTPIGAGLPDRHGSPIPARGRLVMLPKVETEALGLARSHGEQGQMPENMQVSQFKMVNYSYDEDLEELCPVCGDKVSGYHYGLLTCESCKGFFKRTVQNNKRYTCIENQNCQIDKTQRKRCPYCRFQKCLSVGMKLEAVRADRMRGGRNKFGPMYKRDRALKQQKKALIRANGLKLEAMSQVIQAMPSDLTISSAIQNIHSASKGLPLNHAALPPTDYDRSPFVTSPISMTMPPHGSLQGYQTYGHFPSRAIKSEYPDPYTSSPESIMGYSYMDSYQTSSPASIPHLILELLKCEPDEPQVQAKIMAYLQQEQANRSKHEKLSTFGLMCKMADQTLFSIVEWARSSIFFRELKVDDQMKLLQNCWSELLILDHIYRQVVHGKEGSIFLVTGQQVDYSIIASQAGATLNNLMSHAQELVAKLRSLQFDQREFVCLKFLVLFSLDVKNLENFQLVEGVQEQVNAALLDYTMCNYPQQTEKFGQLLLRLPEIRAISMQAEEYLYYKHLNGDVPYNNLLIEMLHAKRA

Steroidogenic factor 1 = Steroidogenic factor 1 (Homo sapiens, UniProt Q13285); assay: Counterscreen for inverse agonists of the liver receptor homolog-1 (LRH-1; NR5A2): Luminescence-based cell-based high throughput dose response assay to identify inverse agonists of the Steroidogenic Factor 1 Nuclear Receptor (SF1; NR5A1).; type: functional
Steroidogenic factor 1, sequence (Q13285 whole entry): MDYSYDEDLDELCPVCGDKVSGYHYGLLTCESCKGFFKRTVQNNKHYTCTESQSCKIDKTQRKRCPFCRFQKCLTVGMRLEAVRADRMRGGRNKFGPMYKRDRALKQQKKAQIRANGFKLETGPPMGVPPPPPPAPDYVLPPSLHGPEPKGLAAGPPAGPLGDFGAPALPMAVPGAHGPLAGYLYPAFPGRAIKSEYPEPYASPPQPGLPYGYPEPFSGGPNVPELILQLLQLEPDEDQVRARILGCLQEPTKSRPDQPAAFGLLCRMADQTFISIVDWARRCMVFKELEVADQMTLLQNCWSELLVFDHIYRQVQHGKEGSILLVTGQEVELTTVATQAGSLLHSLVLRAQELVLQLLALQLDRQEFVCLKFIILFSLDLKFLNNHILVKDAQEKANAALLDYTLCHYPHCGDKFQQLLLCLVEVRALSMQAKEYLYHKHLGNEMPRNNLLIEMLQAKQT

[5] = StAR promoter reporter inhibition counter-screen, dose response, counter-screen for LRH-1 inverse agonist project, cell-based, luminescence, luciferase reporter (AID 651969); type: functional
[6] = molecular target: Low molecular weight phosphotyrosine protein phosphatase (Homo sapiens, UniProt P24666); type: functional; details: read-out: IC50_Mean;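 note: Dose-response confirmation assay measuring inhibition of LMPTP enzyme activity by fluorescence intensity read-out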
Low molecular weight phosphotyrosine protein phosphatase, sequence (P24666 whole entry, the tested form may be a part): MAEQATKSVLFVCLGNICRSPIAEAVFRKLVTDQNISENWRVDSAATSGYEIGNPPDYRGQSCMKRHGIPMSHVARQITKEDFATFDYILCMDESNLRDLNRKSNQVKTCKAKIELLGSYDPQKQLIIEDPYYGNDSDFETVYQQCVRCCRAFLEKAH

[7] = molecular target: T3, Tyrosine-protein phosphatase non-receptor type 22 (Homo sapiens, UniProt Q9Y2R2); assay: LYP phosphatase inhibition for selectivity, dose response, selectivity assay for LMPTP inhibitor project, biochemical, fluorescence, LYP catalytic domain (AID 652006); type: functional; details: read-out: IC50_Mean
T3 sequence (Q9Y2R2 whole entry): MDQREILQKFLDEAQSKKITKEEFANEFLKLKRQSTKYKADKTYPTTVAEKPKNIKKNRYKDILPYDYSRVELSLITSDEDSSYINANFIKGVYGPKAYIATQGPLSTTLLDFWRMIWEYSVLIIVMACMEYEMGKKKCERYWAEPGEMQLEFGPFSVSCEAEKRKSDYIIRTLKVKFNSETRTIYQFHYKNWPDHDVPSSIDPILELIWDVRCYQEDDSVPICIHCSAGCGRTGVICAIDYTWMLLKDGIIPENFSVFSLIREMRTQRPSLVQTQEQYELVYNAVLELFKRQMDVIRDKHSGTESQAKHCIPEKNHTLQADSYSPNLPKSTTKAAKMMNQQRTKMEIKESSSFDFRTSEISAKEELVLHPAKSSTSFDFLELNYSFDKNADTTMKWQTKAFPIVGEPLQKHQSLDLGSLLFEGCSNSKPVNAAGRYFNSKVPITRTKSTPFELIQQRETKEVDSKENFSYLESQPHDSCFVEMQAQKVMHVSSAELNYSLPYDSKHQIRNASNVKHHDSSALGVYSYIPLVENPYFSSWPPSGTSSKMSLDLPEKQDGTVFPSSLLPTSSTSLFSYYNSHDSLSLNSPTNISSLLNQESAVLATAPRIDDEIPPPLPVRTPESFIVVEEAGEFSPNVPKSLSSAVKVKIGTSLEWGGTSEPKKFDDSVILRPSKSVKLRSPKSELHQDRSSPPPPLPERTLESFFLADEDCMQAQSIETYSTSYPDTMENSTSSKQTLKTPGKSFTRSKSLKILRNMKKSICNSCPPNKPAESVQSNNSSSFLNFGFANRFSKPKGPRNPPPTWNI

[8] = molecular target: T4, Sentrin-specific protease 8 (Homo sapiens, UniProt Q96LD8); type: functional
T4 sequence (Q96LD8 whole entry): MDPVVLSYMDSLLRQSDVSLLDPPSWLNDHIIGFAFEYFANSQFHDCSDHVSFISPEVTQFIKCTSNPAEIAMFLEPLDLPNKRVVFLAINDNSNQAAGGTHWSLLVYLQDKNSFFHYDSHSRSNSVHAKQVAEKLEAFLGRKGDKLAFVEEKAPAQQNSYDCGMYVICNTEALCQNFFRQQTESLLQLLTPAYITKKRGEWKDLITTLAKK

[9] = molecular target: T4, Sentrin-specific protease 8; type: functional; remark: listed apart in the source
[10] = molecular target: T5, Methionyl-tRNA synthetase, putative (Trypanosoma brucei brucei, UniProt Q38C91); type: functional, Trypanosoma brucei brucei strain 927/4 GUTat10.1
T5 sequence (Q38C91 whole entry): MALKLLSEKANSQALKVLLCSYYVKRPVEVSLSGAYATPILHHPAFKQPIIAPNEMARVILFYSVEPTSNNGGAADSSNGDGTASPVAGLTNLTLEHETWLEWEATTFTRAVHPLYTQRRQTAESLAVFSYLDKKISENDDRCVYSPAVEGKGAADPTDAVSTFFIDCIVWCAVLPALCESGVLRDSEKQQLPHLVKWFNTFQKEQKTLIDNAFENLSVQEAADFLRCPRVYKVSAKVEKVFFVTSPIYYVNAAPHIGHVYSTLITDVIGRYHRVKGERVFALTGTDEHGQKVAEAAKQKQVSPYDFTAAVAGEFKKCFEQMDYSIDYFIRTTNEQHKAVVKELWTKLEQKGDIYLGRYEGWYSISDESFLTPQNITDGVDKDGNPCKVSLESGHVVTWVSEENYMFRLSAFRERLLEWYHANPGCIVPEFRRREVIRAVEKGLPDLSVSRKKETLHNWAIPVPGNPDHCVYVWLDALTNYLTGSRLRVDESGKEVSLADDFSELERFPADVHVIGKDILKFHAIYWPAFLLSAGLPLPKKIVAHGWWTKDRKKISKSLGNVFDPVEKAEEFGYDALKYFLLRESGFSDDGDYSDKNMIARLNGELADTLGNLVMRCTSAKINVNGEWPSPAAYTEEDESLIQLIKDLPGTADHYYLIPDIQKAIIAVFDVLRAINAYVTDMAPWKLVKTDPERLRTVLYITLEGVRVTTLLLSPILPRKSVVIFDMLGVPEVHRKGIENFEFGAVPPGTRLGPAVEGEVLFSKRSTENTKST

[11] = Counterscreen for inhibitors of Trypanosoma brucei methionyl tRNA synthetase (MetRS): Luminescence-based cell-based high throughput dose response assay to identify compounds that are cytotoxic to Jurkat human T lymphocyte cells.; type: functional
[12] = molecular target: T5, Methionyl-tRNA synthetase, putative; type: functional, Trypanosoma brucei brucei strain 927/4 GUTat10.1; remark: listed apart in the source
[13] = molecular target: T6, ATP-dependent translocase ABCB1 (Homo sapiens, UniProt P08183); assay: ABCG2 efflux pump inhibitor potency, dose response, Ig-MXP3 cells, JC-1, flow cytometry, set 2 (AID 504566); type: functional; details: read-out: EC50_MICROM_;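 note: flow cytometry median green fluorescence of retained JC-1 dye; potency of efflux pump inhibition measured as rising substrate retention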
T6 sequence (P08183 whole entry): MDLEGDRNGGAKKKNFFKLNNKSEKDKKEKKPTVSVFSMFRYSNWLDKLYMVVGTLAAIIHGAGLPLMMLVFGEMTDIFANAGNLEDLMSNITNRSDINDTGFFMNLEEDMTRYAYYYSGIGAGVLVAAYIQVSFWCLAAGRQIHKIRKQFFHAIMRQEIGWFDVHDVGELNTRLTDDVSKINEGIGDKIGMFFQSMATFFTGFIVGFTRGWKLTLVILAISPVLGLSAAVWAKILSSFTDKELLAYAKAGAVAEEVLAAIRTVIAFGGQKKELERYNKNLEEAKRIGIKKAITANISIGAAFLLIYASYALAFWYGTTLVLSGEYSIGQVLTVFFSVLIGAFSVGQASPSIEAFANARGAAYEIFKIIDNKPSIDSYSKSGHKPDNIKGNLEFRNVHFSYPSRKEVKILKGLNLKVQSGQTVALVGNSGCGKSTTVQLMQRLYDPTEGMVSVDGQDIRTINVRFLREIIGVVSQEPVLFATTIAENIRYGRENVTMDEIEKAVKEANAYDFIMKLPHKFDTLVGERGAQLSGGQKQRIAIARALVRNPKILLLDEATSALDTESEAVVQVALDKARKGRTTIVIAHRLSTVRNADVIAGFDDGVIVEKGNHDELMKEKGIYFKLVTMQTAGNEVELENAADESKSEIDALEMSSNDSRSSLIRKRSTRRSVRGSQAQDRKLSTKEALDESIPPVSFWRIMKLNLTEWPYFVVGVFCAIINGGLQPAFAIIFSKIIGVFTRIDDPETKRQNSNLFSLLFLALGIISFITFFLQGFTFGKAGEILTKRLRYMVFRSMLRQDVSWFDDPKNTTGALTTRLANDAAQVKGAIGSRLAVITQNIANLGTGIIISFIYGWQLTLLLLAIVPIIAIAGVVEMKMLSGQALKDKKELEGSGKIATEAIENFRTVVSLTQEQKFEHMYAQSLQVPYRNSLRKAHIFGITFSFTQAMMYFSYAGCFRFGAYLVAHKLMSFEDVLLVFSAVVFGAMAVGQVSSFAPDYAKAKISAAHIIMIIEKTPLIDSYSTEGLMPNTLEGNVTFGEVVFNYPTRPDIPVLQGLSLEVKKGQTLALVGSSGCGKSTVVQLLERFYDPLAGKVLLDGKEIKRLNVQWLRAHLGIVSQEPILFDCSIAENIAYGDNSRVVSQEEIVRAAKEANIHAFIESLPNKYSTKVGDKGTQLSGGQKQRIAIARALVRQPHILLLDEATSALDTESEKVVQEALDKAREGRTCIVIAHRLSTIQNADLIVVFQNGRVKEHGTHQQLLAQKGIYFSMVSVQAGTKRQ

[14] = molecular target: T6, ATP-dependent translocase ABCB1; assay: ABCB1 efflux inhibitor potency, dose response, Jurkat-DNR cells, JC-1, flow cytometry, set 2 (AID 504569); type: functional; details: read-out: EC50_MICROM_;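 note: potency of pump inhibitors that raise cellular JC-1 green fluorescence up to the nicardipine level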

Q: Which EC50 [1] does the source give for `CSc1c(C#N)c(N)nc2sc(C(=O)c3ccccc3)c(N)c12` here?
A: 95.5 µM (active)

Q: And the IC50 [2]?
A: 13.2 µM (active)

Q: What about the IC50 [3] of the same compound?
A: 13.8 µM (active)

Q: What does the source list for `CCOc1ccc(NC(=O)CSc2nc(O)c3c[nH]nc3n2)cc1`?
A: IC50 [4]: 8.61 µM (active); IC50 (Steroidogenic factor 1): 2.89 µM (active); IC50 [5]: 35.9 µM (inactive)

Q: For `NS(=O)(=O)c1ccc(CCNC(=O)c2ccc3nccnc3c2)cc1`, which IC50 [6] is on record?
A: 17.1 µM (active)

Q: What about the IC50 [7] of the same compound?
A: 54.2 µM (inactive)

Q: For `CN1CCC2(CC1)N=C(c1ccc(F)cc1)C(=S)N2C(=O)c1ccccc1`, which IC50 [8] is on record?
A: > 100 µM (inactive)

Q: And the IC50 [9]?
A: 28.6 µM (active)

Q: What does the source list for `O=C(CCCOc1ccc(Cl)cc1Cl)N/N=C/c1ccccc1`?
A: IC50 [10]: 110 µM (inactive); IC50 [11]: 83.3 µM (inactive); IC50 [12]: 16 µM (inactive)

Q: Which EC50 [13] does the source give for `COc1ccc(-c2cc(N3CCN(C(=O)c4ccoc4)CC3)n3nc(-c4cccc(Cl)c4)cc3n2)cc1` here?
A: 1.3 µM (active)

Q: What about the EC50 [14] of the same compound?
A: 4.86 µM (active)
